In patent US20210070748A1, “INHIBITORS OF BRUTONS TYROSINE KINASE” (Pharmacyclics LLC, priority 2015, published 2021):
pIC50: −log10 of the molar value.

Legend:
Type in all cases: biochemical
EGFR = EGFR (Homo sapiens, UniProt P00533); experiment: Inhibition of a panel of kinases, in vitro HotSpot kinase assay: EGFR; conditions: E compounds, Table 17
Description: The degree of inhibition of a panel of kinases is determined using the in vitro HotSpot kinase assay (purified enzymes, ^33P-ATP, an appropriate substrate and 1 μM ATP).

JAK3 = target: T1, JAK3 (Homo sapiens, UniProt P52333); experiment: Inhibition of a panel of kinases, in vitro HotSpot kinase assay: JAK3; conditions: E compounds, Table 17; read-out: IC50 JAK3
T1 sequence (P52333 1-1124): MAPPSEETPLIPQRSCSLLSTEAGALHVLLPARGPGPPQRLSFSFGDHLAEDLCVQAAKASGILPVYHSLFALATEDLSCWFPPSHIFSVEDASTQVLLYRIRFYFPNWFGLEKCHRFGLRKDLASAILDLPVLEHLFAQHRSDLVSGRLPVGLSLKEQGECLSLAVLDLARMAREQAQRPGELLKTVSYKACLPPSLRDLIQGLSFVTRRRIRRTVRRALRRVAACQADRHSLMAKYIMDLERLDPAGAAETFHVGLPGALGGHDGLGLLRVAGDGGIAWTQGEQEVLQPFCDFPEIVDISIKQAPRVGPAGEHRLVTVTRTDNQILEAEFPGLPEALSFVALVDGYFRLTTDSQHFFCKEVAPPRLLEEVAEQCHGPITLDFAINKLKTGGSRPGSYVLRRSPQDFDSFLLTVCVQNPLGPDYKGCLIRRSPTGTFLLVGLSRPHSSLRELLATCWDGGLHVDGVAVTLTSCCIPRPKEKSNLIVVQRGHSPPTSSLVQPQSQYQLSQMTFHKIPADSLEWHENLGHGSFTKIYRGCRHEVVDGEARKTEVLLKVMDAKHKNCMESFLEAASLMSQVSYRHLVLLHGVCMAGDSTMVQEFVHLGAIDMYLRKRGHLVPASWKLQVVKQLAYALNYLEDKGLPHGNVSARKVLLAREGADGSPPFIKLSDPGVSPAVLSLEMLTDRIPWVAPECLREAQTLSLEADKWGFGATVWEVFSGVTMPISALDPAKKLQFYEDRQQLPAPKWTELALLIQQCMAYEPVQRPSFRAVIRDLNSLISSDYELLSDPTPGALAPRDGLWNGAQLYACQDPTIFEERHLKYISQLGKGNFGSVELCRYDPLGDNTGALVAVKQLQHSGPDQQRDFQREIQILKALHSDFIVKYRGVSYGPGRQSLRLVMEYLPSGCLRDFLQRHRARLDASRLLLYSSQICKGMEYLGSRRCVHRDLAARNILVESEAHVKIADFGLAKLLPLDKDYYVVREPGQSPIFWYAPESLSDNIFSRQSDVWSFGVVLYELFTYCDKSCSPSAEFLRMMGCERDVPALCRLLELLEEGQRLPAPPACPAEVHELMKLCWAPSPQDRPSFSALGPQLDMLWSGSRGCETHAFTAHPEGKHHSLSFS

LCK = LCK (Homo sapiens, UniProt P06239); experiment: Inhibition of a panel of kinases, in vitro HotSpot kinase assay: LCK; conditions: E compounds, Table 17; read-out: IC50 LCK
Sequence of LCK (P06239 whole entry): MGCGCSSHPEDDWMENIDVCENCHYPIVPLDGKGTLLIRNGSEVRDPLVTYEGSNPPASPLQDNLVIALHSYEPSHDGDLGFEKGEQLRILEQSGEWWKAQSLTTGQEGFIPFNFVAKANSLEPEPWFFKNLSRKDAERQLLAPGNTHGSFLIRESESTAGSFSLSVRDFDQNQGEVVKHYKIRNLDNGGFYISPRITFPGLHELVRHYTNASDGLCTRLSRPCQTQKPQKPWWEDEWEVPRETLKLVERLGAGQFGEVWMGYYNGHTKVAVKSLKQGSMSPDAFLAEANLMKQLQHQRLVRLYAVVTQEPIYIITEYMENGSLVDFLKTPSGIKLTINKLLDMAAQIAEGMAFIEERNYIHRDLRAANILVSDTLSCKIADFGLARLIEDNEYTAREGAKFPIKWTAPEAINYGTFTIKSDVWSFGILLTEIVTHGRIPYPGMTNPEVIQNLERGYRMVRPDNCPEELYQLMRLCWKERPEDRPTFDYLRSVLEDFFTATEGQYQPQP

Sequence of EGFR (P00533 25-1210): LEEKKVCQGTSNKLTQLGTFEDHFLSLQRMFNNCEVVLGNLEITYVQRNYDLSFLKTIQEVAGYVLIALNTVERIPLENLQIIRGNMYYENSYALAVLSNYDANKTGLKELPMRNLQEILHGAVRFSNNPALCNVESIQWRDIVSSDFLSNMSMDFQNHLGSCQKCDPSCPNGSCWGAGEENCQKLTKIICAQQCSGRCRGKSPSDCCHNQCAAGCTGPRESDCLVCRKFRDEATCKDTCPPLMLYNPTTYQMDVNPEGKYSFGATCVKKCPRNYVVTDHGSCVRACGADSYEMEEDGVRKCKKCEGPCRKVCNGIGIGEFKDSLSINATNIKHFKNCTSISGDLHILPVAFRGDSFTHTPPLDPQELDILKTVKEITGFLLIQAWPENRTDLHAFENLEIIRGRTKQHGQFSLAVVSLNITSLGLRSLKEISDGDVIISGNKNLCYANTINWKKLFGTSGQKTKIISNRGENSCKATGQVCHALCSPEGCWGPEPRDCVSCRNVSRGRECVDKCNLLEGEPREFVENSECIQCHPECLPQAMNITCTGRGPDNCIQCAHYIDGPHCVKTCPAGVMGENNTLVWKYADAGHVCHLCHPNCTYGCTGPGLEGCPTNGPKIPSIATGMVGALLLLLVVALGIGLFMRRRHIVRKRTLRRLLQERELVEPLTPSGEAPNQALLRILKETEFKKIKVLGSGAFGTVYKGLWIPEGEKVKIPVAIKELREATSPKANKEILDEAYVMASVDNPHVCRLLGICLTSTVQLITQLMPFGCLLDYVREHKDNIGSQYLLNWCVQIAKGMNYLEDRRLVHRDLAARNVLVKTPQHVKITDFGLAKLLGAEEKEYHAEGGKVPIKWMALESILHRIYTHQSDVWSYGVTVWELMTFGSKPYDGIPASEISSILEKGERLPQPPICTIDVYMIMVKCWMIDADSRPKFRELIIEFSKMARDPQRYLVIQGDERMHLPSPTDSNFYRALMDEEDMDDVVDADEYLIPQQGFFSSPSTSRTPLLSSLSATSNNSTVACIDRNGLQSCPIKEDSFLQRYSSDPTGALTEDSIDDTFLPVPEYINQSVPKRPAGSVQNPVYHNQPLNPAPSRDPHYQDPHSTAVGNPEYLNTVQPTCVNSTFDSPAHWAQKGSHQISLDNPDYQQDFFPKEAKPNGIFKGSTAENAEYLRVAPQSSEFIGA

pIC50 (EGFR): ≥ 8.00
pIC50 (JAK3): > 8.00
pIC50 (LCK): 7.00 to 8.00
Compound: C=CC(=O)N1CCC[C@@H](Nc2cnc(C(N)=O)c(Nc3ccc(C4CCN(C5CCCC5)CC4)cc3)n2)C1 [Example E-108, (R)-5-(1-acryloylpiperidin-3-ylamino)-3-(4-(1-cyclopentylpiperidin-4-yl)phenylamino)pyrazine-2-carboxamide]
